From patent US12612380B2, “Non-lysosomal glucosylceramidase inhibitors and uses thereof” (ALECTOS THERAPEUTICS INC., priority 2019, dated 2026)
pIC50: −log10 of the molar value.

The compounds below were run against T1, GBA2 (Homo sapiens, UniProt Q9HCG7) (assay: Determination of IC50 values for inhibition of GBA2 in cell lysate). Details: cellular homogenate of HEK293T cells overexpressing human GBA2, 250 μM 4-methylumbelliferone-β-D glucopyranoside, pH 5.5, 37° C., GCase inhibitor present; read-out: GBA2 IC50.
T1 sequence (Q9HCG7 1-927): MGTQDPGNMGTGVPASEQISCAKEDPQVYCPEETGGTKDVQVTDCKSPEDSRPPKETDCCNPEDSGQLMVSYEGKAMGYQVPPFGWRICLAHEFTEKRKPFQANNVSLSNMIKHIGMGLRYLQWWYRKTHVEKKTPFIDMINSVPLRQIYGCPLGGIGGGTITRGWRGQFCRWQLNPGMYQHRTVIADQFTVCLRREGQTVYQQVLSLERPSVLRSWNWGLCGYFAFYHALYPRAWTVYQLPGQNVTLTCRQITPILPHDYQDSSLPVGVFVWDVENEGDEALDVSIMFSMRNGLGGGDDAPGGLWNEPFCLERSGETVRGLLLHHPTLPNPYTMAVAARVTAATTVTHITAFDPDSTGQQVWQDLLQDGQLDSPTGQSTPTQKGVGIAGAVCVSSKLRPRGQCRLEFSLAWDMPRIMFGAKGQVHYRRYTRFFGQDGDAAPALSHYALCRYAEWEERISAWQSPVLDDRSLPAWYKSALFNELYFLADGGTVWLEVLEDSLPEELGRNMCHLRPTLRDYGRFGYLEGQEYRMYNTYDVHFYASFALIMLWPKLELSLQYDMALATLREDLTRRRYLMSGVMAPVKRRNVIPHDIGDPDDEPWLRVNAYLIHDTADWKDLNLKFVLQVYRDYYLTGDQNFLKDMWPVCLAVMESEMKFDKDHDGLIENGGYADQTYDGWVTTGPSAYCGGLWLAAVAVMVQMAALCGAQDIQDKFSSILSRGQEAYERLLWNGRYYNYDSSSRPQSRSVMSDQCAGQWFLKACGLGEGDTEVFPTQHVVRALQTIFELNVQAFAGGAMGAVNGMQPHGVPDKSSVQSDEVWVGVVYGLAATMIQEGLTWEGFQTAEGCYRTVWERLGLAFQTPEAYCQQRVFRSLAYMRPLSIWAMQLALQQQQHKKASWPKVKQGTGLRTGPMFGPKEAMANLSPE
Format: biochemical
Design: host or cells: HEK293T (lentiviral transduction, puromycin selection); used as cellular homogenate
Description: Assay for Determination of IC50 Values for Inhibition of GBA2 in Cell Lysate
Stable GBA2-expressing HEK293T cells were generated as follows. The PCR-amplified human GBA2 (GBA2 nucleotide accession number BC011363) using the following primers: Sense 5′---CGCAAATGGGCGGTAGGCGTG (SEQ ID NO:2)---3′ and antisense 5′---TAGTCAGCCATGGGGCGGAGA (SEQ ID NO:3)---3′) was cloned into pLenti-GIII-CMV by ABM Inc. The correctness of the construct was verified by sequencing. Lentivirus particles containing GBA2 in the pLenti-GIII-CMV plasmid were prepared using a third Generation Virus Packaging Mix (ABM cat #LV053-G074) in HEK293T cells and supplied as a virus particle suspension. The virus suspension was used for infection of HEK293T cells. Cell populations stably expressing human GBA2 were selected using puromycin for several weeks as determined by activity assays and western blot.
Various concentrations of test compounds were prepared in DMSO and then diluted into buffer consisting of 100 mM citric acid, 200 mM disodium phosphate with 1% v/v C10E6, pH 5.5. Cellular homogenates (0.25 mg/mL) of the stable HEK293T-overexpressing GBA2 cell line were preincubated for 10 min on ice with an inhibitor of GCase (20 μM (6R,7R,8S)-8-ethyl-4-azaspiro[2.5]octane-6,7-diol). The reaction solution consisted of 20 μL of 750 μM 4-methylumbelliferone-β-D glucopyranoside in 5% DMSO in the same buffer, 20 μL of GBA2-cellular homogenate pre-treated with (6R,7R,8S)-8-ethyl-4-azaspiro[2.5]octane-6,7-diol and 20 μL of various concentrations of test compound in 10% DMSO in the same buffer. The final concentrations in the reaction were 0.083 mg/mL GBA2-cellular homogenate, 250 μM 4-methylumbelliferone-β-D glucopyranoside, and various concentrations of inhibitor. The inhibitor and GBA2-cellular homogenate were preincubated together for 5 min at 37° C. The reaction was initiated by addition of substrate and allowed to proceed for 20 min at 37° C. to assess GBA2 activity. Reactions were stopped by the addition of an equal volume (60 μL) of 0.5 M NaOH, 0.3 M glycine, pH 10.5. Fluorescence was measured on a Biotek Synergy H4 plate reader at wavelengths of 365 nm for excitation and 450 nm for emission. Incubations without added enzyme or added inhibitors were used to define no enzyme activity and maximal enzyme activity, respectively. IC50 values were determined by fitting the data to a log[inhibitor concentration] versus response curve using GraphPad Prism. IC50 values were calculated as the concentration of inhibitor required to inhibit GBA2 activity by 50%.

`C[C@@H]1[C@@H](O)[C@H](O)[C@@H](O)CN1CC1CCCCC1` [Example 1, (2R,3R,4R,5S)-1-(cyclohexylmethyl)-2-methylpiperidine-3,4,5-triol] and `C[C@@H]1[C@@H](O)[C@H](O)[C@@H](O)CN1CCC1CCCCC1` [Example 29, (2R,3R,4R,5S)-1-(2-cyclohexylethyl)-2-methylpiperidine-3,4,5-triol] fall in the same range of pIC50: 6.00 to 7.00 for the first, 6.00 to 7.00 for the second.

Compared with `C[C@@H]1[C@@H](O)[C@H](O)[C@@H](O)CN1CC1CCC(C)(C)CC1` [Example 2, (2R,3R,4R,5S)-1-((4,4-dimethylcyclohexyl)methyl)-2-methylpiperidine-3,4,5-triol], `C[C@@H]1[C@@H](O)[C@H](O)[C@@H](O)CN1CC1CCC(F)(F)CC1` [Example 3, (2R,3R,4R,5S)-1-((4,4-difluorocyclohexyl)methyl)-2-methylpiperidine-3,4,5-triol] is lower in pIC50: 6.00 to 7.00 for the first, 4.60 to 6.00 for the second.

First: C[C@@H]1[C@@H](O)[C@H](O)[C@@H](O)CN1CC1CCC(Cl)(Cl)CC1 [Example 4, (2R,3R,4R,5S)-1-((4,4-dichlorocyclohexyl)methyl)-2-methylpiperidine-3,4,5-triol]
Second: C[C@@H]1[C@@H](O)[C@H](O)[C@@H](O)CN1CC1CCC2(CC1)CC2 [Example 23, (2R,3R,4R,5S)-2-methyl-1-(spiro[2.5]octan-6-ylmethyl)piperidine-3,4,5-triol]
The pIC50 of the first is higher: greater than 7.00 for the first, 6.00 to 7.00 for the second.

Compared with `CCC1CCC(CN2C[C@H](O)[C@@H](O)[C@H](O)[C@H]2C)CC1` (stereo partly drawn) [Example 5, (2R,3R,4R,5S)-1-((4-ethylcyclohexyl)methyl)-2-methylpiperidine-3,4,5-triol], `COCC1CCC(CN2C[C@H](O)[C@@H](O)[C@H](O)[C@H]2C)CC1` (stereo partly drawn) [Example 19, (2R,3R,4R,5S)-1-((4-(methoxymethyl)cyclohexyl)methyl)-2-methylpiperidine-3,4,5-triol] is lower in pIC50: greater than 7.00 for the first, 6.00 to 7.00 for the second.

First: C=C[C@H]1CC[C@@H](CN2C[C@H](O)[C@@H](O)[C@H](O)[C@H]2C)CC1 [Example 6, (2R,3R,4R,5S)-2-methyl-1-(((1s,4S)-4-vinylcyclohexyl)methyl)piperidine-3,4,5-triol]
Second: CO[C@H]1CC[C@@H](CN2C[C@H](O)[C@@H](O)[C@H](O)[C@H]2C)CC1 [Example 17, (2R,3R,4R,5S)-1-(((1s,4S)-4-methoxycyclohexyl)methyl)-2-methylpiperidine-3,4,5-triol]
The pIC50 of the first is higher: greater than 7.00 for the first, 4.60 to 6.00 for the second. The first is the more potent here.

`CC(C)[C@H]1CC[C@H](CN2C[C@H](O)[C@@H](O)[C@H](O)[C@H]2C)CC1` [Example 8, (2R,3R,4R,5S)-1-(((1r,4R)-4-isopropylcyclohexyl)methyl)-2-methylpiperidine-3,4,5-triol] and `C[C@@H]1[C@@H](O)[C@H](O)[C@@H](O)CN1C[C@H]1CC[C@H](C(C)(C)C)CC1` [Example 10, (2R,3R,4R,5S)-1-(((1r,4R)-4-(tert-butyl)cyclohexyl)methyl)-2-methylpiperidine-3,4,5-triol] cannot be ordered by pIC50: greater than 7.00 for the first, greater than 7.00 for the second.

Compared with `C[C@@H]1[C@@H](O)[C@H](O)[C@@H](O)CN1C[C@H]1CC[C@H](C(C)(C)F)CC1` [Example 14, (2R,3R,4R,5S)-1-(((1r,4R)-4-(2-fluoropropan-2-yl)cyclohexyl)methyl)-2-methylpiperidine-3,4,5-triol], `CO[C@H]1CC[C@H](CN2C[C@H](O)[C@@H](O)[C@H](O)[C@H]2C)CC1` [Example 18, (2R,3R,4R,5S)-1-(((1r,4R)-4-methoxycyclohexyl)methyl)-2-methylpiperidine-3,4,5-triol] is lower in pIC50: greater than 7.00 for the first, 4.60 to 6.00 for the second. The first is the more potent here.

Compared with `C[C@@H]1[C@@H](O)[C@H](O)[C@@H](O)CN1C[C@H]1CCC[C@H](C(F)(F)F)C1` [Example 15, (2R,3R,4R,5S)-2-methyl-1-(((trans)-3-(trifluoromethyl)cyclohexyl)methyl)piperidine-3,4,5-triol], `C[C@@H]1[C@@H](O)[C@H](O)[C@@H](O)CN1C[C@H]1CCC[C@@H](C(F)(F)F)C1` [Example 16, (2R,3R,4R,5S)-2-methyl-1-(((cis)-3-(trifluoromethyl)cyclohexyl)methyl)piperidine-3,4,5-triol] is lower in pIC50: greater than 7.00 for the first, 6.00 to 7.00 for the second.

`C[C@@H]1[C@@H](O)[C@H](O)[C@@H](O)CN1C[C@H]1CC[C@H](C2CC2)CC1` [Example 21, (2R,3R,4R,5S)-1-(((1r,4R)-4-cyclopropylcyclohexyl)methyl)-2-methylpiperidine-3,4,5-triol] and `C[C@@H]1[C@@H](O)[C@H](O)[C@@H](O)CN1CC1CCC(c2ccccc2)CC1` (stereo partly drawn) [Example 22, (2R,3R,4R,5S)-2-methyl-1-((4-phenylcyclohexyl)methyl)piperidine-3,4,5-triol] cannot be ordered by pIC50: greater than 7.00 for the first, greater than 7.00 for the second.

Compared with `C[C@@H]1[C@@H](O)[C@H](O)[C@@H](O)CN1CC1CCC2(CCCC2)CC1` [Example 25, (2R,3R,4R,5S)-2-methyl-1-(spiro[4.5]decan-8-ylmethyl)piperidine-3,4,5-triol], `C[C@@H]1[C@@H](O)[C@H](O)[C@@H](O)CN1C[C@H]1CC[C@]2(CC1)COC(C)(C)C2` [Example 26, (2R,3R,4R,5S)-1-(((5S,8s)-3,3-dimethyl-2-oxaspiro[4.5]decan-8-yl)methyl)-2-methylpiperidine-3,4,5-triol] is lower in pIC50: greater than 7.00 for the first, 6.00 to 7.00 for the second. The first is the more potent here.

`C[C@@H]1[C@@H](O)[C@H](O)[C@@H](O)CN1CC1CCc2ccccc2C1` (stereo partly drawn) [Example 27, (2R,3R,4R,5S)-2-methyl-1-((1,2,3,4-tetrahydronaphthalen-2-yl)methyl)piperidine-3,4,5-triol] and `C[C@@H]1[C@@H](O)[C@H](O)[C@@H](O)CN1CC1Cc2ccccc2C1` [Example 28, (2R,3R,4R,5S)-1-((2,3-dihydro-1H-inden-2-yl)methyl)-2-methylpiperidine-3,4,5-triol] cannot be ordered by pIC50: greater than 7.00 for the first, greater than 7.00 for the second.

Compared with `C[C@@H]1[C@@H](O)[C@H](O)[C@@H](O)CN1CCC1CCC(F)(F)CC1` [Example 30, (2R,3R,4R,5S)-1-(2-(4,4-difluorocyclohexyl)ethyl)-2-methylpiperidine-3,4,5-triol], `C[C@@H]1[C@@H](O)[C@H](O)[C@@H](O)CN1CC[C@H]1CC[C@@H](C(F)(F)F)CC1` [Example 31, (2R,3R,4R,5S)-2-methyl-1-(2-((1s,4S)-4-(trifluoromethyl)cyclohexyl)ethyl)piperidine-3,4,5-triol] is higher in pIC50: 6.00 to 7.00 for the first, greater than 7.00 for the second. The second is the more potent here.

`C[C@@H]1[C@@H](O)[C@H](O)[C@@H](O)CN1CC[C@H]1CC[C@H](C(F)(F)F)CC1` [Example 32, (2R,3R,4R,5S)-2-methyl-1-(2-((1r,4R)-4-(trifluoromethyl)cyclohexyl)ethyl)piperidine-3,4,5-triol] and `C[C@@H]1[C@@H](O)[C@H](O)[C@@H](O)CN1CCC12CC3CC(CC(C3)C1)C2` [Example 33, (2R,3R,4R,5S)-1-((2-adamantan-1-yl)ethyl)-2-methylpiperidine-3,4,5-triol] cannot be ordered by pIC50: greater than 7.00 for the first, greater than 7.00 for the second.
